Test results: the supplement of paper PMC11451515

Columns and labels:
Settings in all cases: 48 h
[1] = system: NOMO1; assay: cell viability relative to DMSO control; higher = less cytotoxic
How it was run: (§1)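 In 1536-well plates, 5 μl of leukemia cells were seeded per well: 500 cells/well for NOMO1 or SEM and 1000 cells/well for P12-Ichikawa. Each line had first been adapted for at least four passages in each medium. Library compounds in DMSO were pin-dosed at 11 threefold concentrations between 47 μM and 0.79 nM, and CellTiter-Glo One luminescence was read after 48 h at 37°C. Viability is a per-plate percentage relative to DMSO wells, with cell-free wells as background.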

[2] = system: P12-Ichikawa; assay: as above
How it was run: as §1

[3] = system: SEM cells; assay: as above
How it was run: as §1

[4] = system: NOMO1; assay: AUC of viability dose-response curve (% viability x log10 dose units); higher = less sensitive
How it was run: (§2)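 Area under the curve was integrated by trapezoidal rule from a log-logistic fit of normalised viability, with curves exceeding full viability scaled and quality-control failures removed. The fit had four parameters over log10 doses. Viability came from CellTiter-Glo One luminescence, normalised per plate to DMSO and cell-free wells, after leukemia cells adapted to each medium (500 or 1000 cells/well, 1536-well plates) were exposed to library compounds in DMSO for 48 h at 37°C. The 11 threefold doses ran from 47 μM to 0.79 nM.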

[5] = system: P12-Ichikawa; assay: as above
How it was run: as §2

[6] = system: SEM cells; assay: as above
How it was run: as §2

COc1ccc2cccc(CCNC(C)=O)c2c1
cell viability [%]
Settings | [1] | [2] | [3]
HPLM + 10% dialyzed FBS, 0.000781 µM | 111 | 104 | 105
HPLM + 10% dialyzed FBS, 0.00234 µM | 114 | 100 | 104
HPLM + 10% dialyzed FBS, 0.00702 µM | 95.7 | 102 | 107
HPLM + 10% dialyzed FBS, 0.0211 µM | 123 | 102 | 111
HPLM + 10% dialyzed FBS, 0.0632 µM | 104 | 96 | 109
HPLM + 10% dialyzed FBS, 0.19 µM | 87.9 | 103 | 97.6
HPLM + 10% dialyzed FBS, 0.569 µM | 122 | 99 | 112
HPLM + 10% dialyzed FBS, 1.71 µM | 104 | 104 | 114
HPLM + 10% dialyzed FBS, 5.12 µM | 101 | 102 | 109
HPLM + 10% dialyzed FBS, 15.4 µM | 89.7 | 92.7 | 49.2
HPLM + 10% dialyzed FBS, 46.1 µM | 85 | 89.6 | 105
RPMI 5 mM glucose + 10% FBS, 0.000781 µM | 90.8 | 98.3 | 110
RPMI 5 mM glucose + 10% FBS, 0.00234 µM | 91.6 | 104 | 83.4
RPMI 5 mM glucose + 10% FBS, 0.00702 µM | 86.5 | 105 | 107
RPMI 5 mM glucose + 10% FBS, 0.0211 µM | 92.9 | 109 | 100
RPMI 5 mM glucose + 10% FBS, 0.0632 µM | 84.7 | 103 | 105
RPMI 5 mM glucose + 10% FBS, 0.19 µM | 84.6 | 107 | 90
RPMI 5 mM glucose + 10% FBS, 0.569 µM | 85.6 | 104 | 109
RPMI 5 mM glucose + 10% FBS, 1.71 µM | 94.7 | 101 | 106
RPMI 5 mM glucose + 10% FBS, 5.12 µM | 83.1 | 99.6 | 110
RPMI 5 mM glucose + 10% FBS, 15.4 µM | 83.2 | 97.8 | 40.7
RPMI 5 mM glucose + 10% FBS, 46.1 µM | 80.1 | 95.9 | 95
RPMI 5 mM glucose + 10% dialyzed FBS, 0.000781 µM | 94.7 | 97.6 | 107
RPMI 5 mM glucose + 10% dialyzed FBS, 0.00234 µM | 96.6 | 103 | 106
RPMI 5 mM glucose + 10% dialyzed FBS, 0.00702 µM | 105 | 110 | 101
RPMI 5 mM glucose + 10% dialyzed FBS, 0.0211 µM | 82.5 | 96.8 | 111
RPMI 5 mM glucose + 10% dialyzed FBS, 0.0632 µM | 91.3 | 104 | 120
RPMI 5 mM glucose + 10% dialyzed FBS, 0.19 µM | 97.4 | 104 | 94.8
RPMI 5 mM glucose + 10% dialyzed FBS, 0.569 µM | 97.2 | 97.4 | 94.7
RPMI 5 mM glucose + 10% dialyzed FBS, 1.71 µM | 90.2 | 93.8 | 104
RPMI 5 mM glucose + 10% dialyzed FBS, 5.12 µM | 86 | 94.3 | 124
RPMI 5 mM glucose + 10% dialyzed FBS, 15.4 µM | 93.7 | 98.2 | 37.4
RPMI 5 mM glucose + 10% dialyzed FBS, 46.1 µM | 79.6 | 89.6 | 101

AUC of viability dose-response curve
Settings | [4] | [5] | [6]
HPLM + 10% dialyzed FBS | 434 | 470 | 451
RPMI 5 mM glucose + 10% FBS | 415 | 468 | 453
RPMI 5 mM glucose + 10% dialyzed FBS | 440 | 460 | 452

CC(C)(O)CNc1nc(Nc2ccnc(C(F)(F)F)c2)nc(-c2cccc(C(F)(F)F)n2)n1
cell viability [%]
Settings | [1] | [2] | [3]
HPLM + 10% dialyzed FBS, 0.000781 µM | 99.2 | 101 | 106
HPLM + 10% dialyzed FBS, 0.00234 µM | 99.4 | 103 | 89
HPLM + 10% dialyzed FBS, 0.00702 µM | 131 | 107 | 101
HPLM + 10% dialyzed FBS, 0.0211 µM | 120 | 107 | 105
HPLM + 10% dialyzed FBS, 0.0632 µM | 146 | 106 | 91.3
HPLM + 10% dialyzed FBS, 0.19 µM | 122 | 102 | 109
HPLM + 10% dialyzed FBS, 0.569 µM | 134 | 99.4 | 110
HPLM + 10% dialyzed FBS, 1.71 µM | 114 | 104 | 93.5
HPLM + 10% dialyzed FBS, 5.12 µM | 99.4 | 8.99 | 67.2
HPLM + 10% dialyzed FBS, 15.4 µM | 85.8 | 10.4 | 33.1
HPLM + 10% dialyzed FBS, 46.1 µM | 72.8 | 15.2 | 24.6
RPMI 5 mM glucose + 10% FBS, 0.000781 µM | 112 | 103 | 99.5
RPMI 5 mM glucose + 10% FBS, 0.00234 µM | 115 | 115 | 84.7
RPMI 5 mM glucose + 10% FBS, 0.00702 µM | 102 | 100 | 119
RPMI 5 mM glucose + 10% FBS, 0.0211 µM | 109 | 114 | 107
RPMI 5 mM glucose + 10% FBS, 0.0632 µM | 118 | 104 | 80.7
RPMI 5 mM glucose + 10% FBS, 0.19 µM | 106 | 118 | 122
RPMI 5 mM glucose + 10% FBS, 0.569 µM | 103 | 111 | 117
RPMI 5 mM glucose + 10% FBS, 1.71 µM | 123 | 107 | 64.7
RPMI 5 mM glucose + 10% FBS, 5.12 µM | 43.7 | 10.2 | 31.3
RPMI 5 mM glucose + 10% FBS, 15.4 µM | 50.3 | 10.7 | 15.8
RPMI 5 mM glucose + 10% FBS, 46.1 µM | 48.7 | 13.2 | 14.6
RPMI 5 mM glucose + 10% dialyzed FBS, 0.000781 µM | 105 | 99.6 | 105
RPMI 5 mM glucose + 10% dialyzed FBS, 0.00234 µM | 110 | 106 | 89.8
RPMI 5 mM glucose + 10% dialyzed FBS, 0.00702 µM | 120 | 115 | 112
RPMI 5 mM glucose + 10% dialyzed FBS, 0.0211 µM | 115 | 117 | 107
RPMI 5 mM glucose + 10% dialyzed FBS, 0.0632 µM | 121 | 123 | 106
RPMI 5 mM glucose + 10% dialyzed FBS, 0.19 µM | 117 | 109 | 114
RPMI 5 mM glucose + 10% dialyzed FBS, 0.569 µM | 109 | 117 | 122
RPMI 5 mM glucose + 10% dialyzed FBS, 1.71 µM | 114 | 118 | 88.7
RPMI 5 mM glucose + 10% dialyzed FBS, 5.12 µM | 56.3 | 17.5 | 44.6
RPMI 5 mM glucose + 10% dialyzed FBS, 15.4 µM | 53.2 | 21.5 | 21.4
RPMI 5 mM glucose + 10% dialyzed FBS, 46.1 µM | 62.5 | 26.8 | 14.7

AUC of viability dose-response curve
Settings | [4] | [5] | [6]
HPLM + 10% dialyzed FBS | 442 | 371 | 408
RPMI 5 mM glucose + 10% FBS | 409 | 369 | 363
RPMI 5 mM glucose + 10% dialyzed FBS | 418 | 381 | 382
